For data set [1], the system named is transcription factor AP-1. Kind of data set: Luciferase assay (TPA-stimulated p(TRE)5TK-Luc reporter transfectant). Format: cell-based. To be noted: Mus musculus, TPA stimulation 16 hours, Luc activity, read-out: Inhibition rate (%); for inhibition at 100 µg/mL: 100 μg/ml test compound; for inhibition at 30 µg/mL: 30 μg/ml test compound. On the procedure:
(§1) A reporter plasmid was prepared according to the method of R. I. Scheinman et al. [Mol. Cell. Biol., Vol. 15, Pages 943-953 (1995)]. That is, a plasmid p(TRE)5TK-Luc was constructed by connecting a promoter of thymidine kinase (TK) at an upstream site of luciferase (Luc) gene which is a reporter gene and a 5-times repeated TRE sequence at a further upstream site thereof. The plasmid was co-transfected simultaneously with p3′SS plasmid (prepared by Stratagene Co.) by the electrotranspolation method onto mouse 3T3 fibroblast (ATCC: CCL-163) cultured in a Dulbecco's modified Eagle's medium (DMEM) containing 10% fetal calf serum (FCS). Then the cells were cultured in DMEM containing 10% FCS and 100 μg/ml of Hygromycin B. Using the expression of Hygromycin-resistant gene contained in p3′SS as an indicator, cell strains of the transfectant into which the objective plasmid had been introduced stably were selected. Furthermore in the test mentioned below, cell strains showing expression of Luc gene under stimulation of 12-O-tetradecanoylphorbol 13-acetate (TPA, prepared by Sigma Co.) were used, and DMEM containing 10% FCS and 100 μg/ml of Hygromycin B was used for the culture of cells.
The cells prepared above were suspended in culture medium, and plated 96 well-plate at 1×10^4 cells/0.1 ml. After culturing it overnight, 50 μl of test compounds solution and 40 μl of culture medium were added, and incubated. After one hour 10 μl of 200 ng/ml TPA solution was added and the culture was continued for an additional 16 hours to stimulate the cells. The end of cluture, the cells were recovered, and cell lysis solutions were obtained. The Luc activity of the cell lysates was measured with a chemilluminescent detection kit (Pica Gene; manufactured by Toyo Ink Co.). The suppressive effect of each test compound could be assessed as a decrease of Luc activity, and the inhibition rate (%) was calculated according to the following formula:
Inhibition rate (%)=(1−Luc activity of cells to which the compound is added/Luc activity of cells to which the compound is not added)×100
(§2) The compounds of Example No. 1, 6(3), 6(5), 13, 15, 17, 18(1), 18(8), 20(1) and 20(2) were converted to sodium salts according to the method of Example 42, and then used for the assay.

Data set [2] concerns mouse 3T3 fibroblast. As to the kind of experiment: XTT assay (cytotoxicity test). Format: cell-based. The settings on record: 16 hours culture, T/C %. On the procedure: as §1
The same culture plate as above was prepared, and test compound and TPA were added under the same conditions as above, after which a culture was carried out for 16 hours. The end of cluture, XTT reagent prepared according to the method of D. A. Scudievo [Cancer Res., Vol. 48, Pages 4827-4833 (1988)] was added and made to react for a prescribed period of time. Then, the amount of formazan formed by alive cells was analyzed by measuring absorbance at 450 nm using a micro plate reader. In this test, a decrease in absorbance is observed when the test compounds show a cytotoxicitic or a growth inhibitory activity. Cell viability (T/C %) was determined according to the following formula:
Cell Viability Rate (T/C %)=(Absorbance of well to which compound is added/Absorbance of well to which the compound was not added)×100
as §2
On the technique in general: Tetrazolium dyes change colour on reduction, which living cells bring about.

Data set [3] deals with type II collagen-induced arthritis. Kind of data set: Type II collagen-induced arthritis in mice (arthritis score, joint-bone destruction score). The settings on record: 100 mg/kg orally once every day from day 21 to day 35, mean. It counts as in vivo, DBA/1J mice. The procedure:
The compound of Example 20 (1) was tested for the effect on type II collagen-induced arthritis, using 8 weeks old, male DBA/1J mice (Japan Charles River). Emulsion was prepared by mixing an equal volume of bovine type II collagen (prepared by Koken) in 0.1N acetic acid (2 mg/ml) and Freund's complete adjuvant (prepared by Nacalai Tesque). Arthritis was induced by intradermal injection of 0.2 ml (the quantity of antigen: 200 μg/head) of the emulsion into the skin of the tail root twice (day 0 and day 21). The test compound was suspended in 0.5% solution of methyl cellulose, and 100 mg/kg was orally administered once every day from day 21 to day 35. […] Severity of the arthritis was scored 0: no change, 1: only one or two swelling of the joints or slight swelling of the ankle or toes, 2: swelling and/or rubor in further joints, 3: extensive swelling of whole paw, and the maximum possible score for arthritis was 12 points. As to the severity of destruction of joints and bones, X ray photographs of four paws were taken (Softex), and severity of destruction in the second to fifth articulationes interphalangeae, first to fifth articulationes metacarpophalangeae and metatarsophalangeae, and calcaneus was scored by 0 or 1 in accordance with presence or absence of destruction, and the severity of destruction in the carpus and tarsal was scored by 0 to 3. […]

Here are results for twelve molecules from patent publication US6384065B1, “Spiro compounds or salts thereof and preventives/remedies for autoimmune diseases and AP-1 inhibitors containing the same” (Toyama Chemical Co., Ltd., priority 1998, dated 2002).

Regarding `CC(C)c1ccc(OC2CCC3(CC2)SC[C@@H](C(=O)NCCC(=O)O)N3C(=O)c2ccccc2)cc1` (stereo partly drawn) [Example 29, 3-({[(3R)-4-benzoyl-8-(4-isopropylphenoxy)-1-thia-4-azaspiro[4.5]-decan-3-yl]carbonyl}amino)-propionic acid], in data set [1], the inhibition at 100 µg/mL came out at 92%. The “Cell viability (%)” value in data set [2] (100 μg/ml test compound) worked out at 110%.
`CC(C)c1ccc(OC2CCC3(CC2)SC(C)(C)[C@@H](C(=O)O)N3C(=O)c2ccccc2)cc1` (stereo partly drawn) [20 (2), (3R)-4-Benzoyl-8-(4-isopropylphenoxy)-2,2-dimethyl-1-thia-4-azaspiro[4.5]decane-3-carboxylic acid]: the inhibition at 100 µg/mL in data set [1] was 93%. For the same molecule, the “Cell viability (%)” value in data set [2] (100 μg/ml test compound) was found to be 92%.
With `COc1ccc(C(=O)N2[C@H](C(=O)O)CSC23CCC(Oc2ccc(C(C)C)cc2)CC3)cc1` (stereo partly drawn) [41 (5), (3R)-8-(4-Isopropylphenoxy)-4-(4-methoxybenzoyl)-1-thia-4-azaspiro[4.5]decane-3-carboxylic acid], the inhibition at 100 µg/mL in data set [1] was 94%. Besides, in data set [2] (100 μg/ml test compound), the “Cell viability (%)” value stood at 90%.
For the molecule `CCOC(=O)[C@@H]1CSC2(CCC(Oc3ccc(C(C)C)cc3)CC2)N1C(=O)c1ccccc1` (stereo partly drawn) [Example 21, ethyl (3R)-4-benzoyl-8-(4-isopropylphenoxy)-1-thia-4-azaspiro[4.5]decane-3-carboxylate], in data set [1], the inhibition at 30 µg/mL was 28%. Further, the “Cell viability (%)” value in data set [2] (30 μg/ml test compound) came to 74%.
In the case of `CC(C)c1ccc(OC2CCC3(CC2)SC[C@@H](C(=O)O)N3C(=O)c2cnc3ccccc3c2)cc1` (stereo partly drawn) [41 (2), (3R)-8-(4-Isopropylphenoxy)-4-(3-quinolylcarbonyl)-1-thia-4-azaspiro[4.5]decane-3-carboxylic acid], in data set [1], the inhibition at 100 µg/mL worked out at 94%. In addition, the “Cell viability (%)” value in data set [2] (100 μg/ml test compound) turned out to be 71%.
Turning to `CC(C)c1ccc(OC2CCC3(CC2)SC(C)(C)[C@H](C(=O)O)N3C(=O)c2ccccc2)cc1` (stereo partly drawn) [20 (1), (3S)-4-Benzoyl-8-(4-isopropylphenoxy)-2,2-dimethyl-1-thia-4-azaspiro[4.5]decane-3-carboxylic acid], in data set [3] (X ray of four paws, control 20 ± 3), the Joint-bone destruction score came to 14 ± 3. The same molecule registered an Arthritis score in data set [3] (maximum score 12, control 10 ± 1) of 8 ± 1. Further, the inhibition at 30 µg/mL in data set [1] came out at 72%. Moreover, the “Cell viability (%)” value in data set [2] (30 μg/ml test compound) turned out to be 98%.
As for `CC(C)c1ccc(OC2CCC3(CC2)SC[C@@H](C(=O)O)N3C(=O)c2cnccn2)cc1` (stereo partly drawn) [41 (4), (3R)-8-(4-Isopropylphenoxy)-4-(2-pyrazinylcarbonyl)-1-thia-4-azaspiro[4.5]decane-3-carboxylic acid], the inhibition at 100 µg/mL in data set [1] is 96%. Moreover, in data set [2] (100 μg/ml test compound), the “Cell viability (%)” value is 82%.
As for `CC(C)c1ccc(OC2CCC3(CC2)SC[C@@H](C(=O)O)N3C(=O)c2ccc[nH]2)cc1` (stereo partly drawn) [Example 40, (3R)-8-(4-isopropylphenoxy)-4-(1H-2-pyrrolylcarbonyl)-1-thia-4-azaspiro[4.5]decane-3-carboxylic acid], in data set [1], the inhibition at 100 µg/mL came to 91%. For the same molecule, the “Cell viability (%)” value in data set [2] (100 μg/ml test compound) was 108%.
As to `CC(C)CC=C1CCC2(CC1)SC(C)(C)[C@@H](C(=O)O)N2C(=O)CCC(C)C` (stereo partly drawn) [Example 44, (3R)-2,2-dimethyl-8-(3-methylbutylidene)-4-(4-methylpentanoyl)-1-thia-4-azaspiro[4.5]decane-3-carboxylic acid], the inhibition at 30 µg/mL in data set [1] is 62%. Also, the “Cell viability (%)” value in data set [2] (30 μg/ml test compound) amounted to 75%.
Turning to `Cc1nc(C(=O)N2[C@H](C(=O)O)CSC23CCC(Oc2ccc(C(C)C)cc2)CC3)cs1` (stereo partly drawn) [41 (3), (3R)-8-(4-Isopropylphenoxy)-4-[(2-methyl-1,3-thiazol-4-yl)carbonyl]-1-thia-4-azaspiro[4.5]decane-3-carboxylic acid], the inhibition at 100 µg/mL in data set [1] was 80%. Also, in data set [2] (100 μg/ml test compound), the “Cell viability (%)” value is 97%.
With `CC(C)CC=C1CCC2(CC1)SC(CC(=O)OC(C)C)C(=O)N2CC(=O)O` (centres unmarked) [Example 47, 2-[2-(2-isopropoxy-2-oxoethyl)-8-(3-methylbutylidene)-3-oxo-1-thia-4-azaspiro[4.5]decan-4-yl]-acetic acid], the inhibition at 30 µg/mL in data set [1] stood at 47%. Further, the “Cell viability (%)” value in data set [2] (30 μg/ml test compound) is reported as 83%.
As for `CCN(CC)C(=O)c1ccc(C(=O)N2[C@H](C(=O)O)CSC23CCC(Oc2ccc(C(C)C)cc2)CC3)cc1` (stereo partly drawn) [41 (6), (3R)-4-{4-[(Diethylamino)carbonyl]benzoyl}-8-(4-isopropylphenoxy)-1-thia-4-azaspiro[4.5]decane-3-carboxylic acid], the inhibition at 100 µg/mL in data set [1] came out at 49%. Also, the “Cell viability (%)” value in data set [2] (100 μg/ml test compound) turned out to be 97%.

One may read the inhibition as the percentage by which the read-out fell short of the control.
